Measured values: patent US20190388495A1, “Pharmaceutical Composition for Preventing or Treating Hypersensitivity Immune Disease, and Method for Producing Same” (QURATIS INC., priority 2017, published 2019)

These compounds were tested on plasmacytoid dendritic cells (assay: IL-10 secretion from plasmacytoid dendritic cells induced with various toll-like receptor agonists, ELISA (Example 3)). Conditions: stimulated with ODN1826 1 μg/ml, 24 hours; vs non-treatment.
Format: cell-based, C57BL/6 mice
Source text: In order to check the immune tolerance inducing effect of various toll-like receptor agonists, differentiation into the plasmacytoid dendritic cells was induced by the same method as in Example 1. Ligands listed in Table 2 were used as the toll-like receptor agonist. From the cells obtained after 8 days of culture, the plasmacytoid dendritic cells were separated at a purity equal to or greater than 85% by a plasmacytoid dendritic cell separation kit (Miltenyi Biotec, Auburn, Calif.) and a magnetic cell sorting system (Vario MACS: Miltenyi Biotec, Auburn, Calif.). The separated cells (5×10^5 cells/ml) were inoculated into a 48 well plate. ODN1826 (1 μg/ml) was applied thereto and the cells were cultured for 24 hours. Then, supernatant was separated. The secretion pattern of the immunosuppressive cytokine IL-10 was then checked by ELISA (enzyme linked immunosorbent assay).
For Pam3 [TLR2 agonist], the “expression level of IL-10 from plasmacytoid dendritic cells differentiated via treatment with the agonist” value was “significantly increased”. In the case of LPS [TLR4 agonist], the “expression level of IL-10 from plasmacytoid dendritic cells differentiated via treatment with the agonist” value is reported as “significantly increased”. For `CC(C)Cn1cnc2c(N)nc3ccccc3c21` [TLR7 agonist, Imiquimod], the “expression level of IL-10 from plasmacytoid dendritic cells differentiated via treatment with the agonist” value was “significantly increased”.
